Assays:
[1] = target: TLR8 (Homo sapiens (Human), UniProt Q9NR97); assay: TLR8 human peripheral blood mononuclear cell (PBMC) cell-based assay (Compound A as agonist; TNFα and IL12p40 readout); conditions: human PBMCs, TLR8 agonist Compound A at 800 nM, 6 hours, antagonist potency; read-out: TLR-8 EC50
Method: After counting, the cell density was adjusted to 2 million cells/ml and incubated for 1 hour at 37° C., 5% CO2 for recovery. Following the recovery, the cells were plated by adding 50 μl per well (100,000 cells) to 384-well cell culture plates (Greiner) containing 250 nl of test antagonists in 100% DMSO per well, in a 10 points dose response in quadruplicates. PBMCs were incubated in the presence of antagonists for one hour at 37° C., 5% CO2 before being stimulated with TLR8 agonist. […] PBMCs were incubated in the presence of antagonist and the TLR8 agonist for an additional 6 hours at 37° C., 5% CO2. At the end of the incubation, the cell culture plates were centrifuged at 500 g for 5 min, and the cell culture supernatant was collected. The level of cytokines (TNFα and IL12p40) in the supernatant was measured by electrochemiluminescence immunoassays (Mesoscale Discovery) following manufacturer's recommended protocols.

[2] = target: TLR7 (Homo sapiens (Human), UniProt Q9NYK1); assay: TLR7 human peripheral blood mononuclear cell (PBMC) cell-based assay (GS-986 as agonist; IL-6 and IFNα readout); conditions: human PBMCs, TLR7 agonist GS-986 at 400 nM, 6 hours, antagonist potency; read-out: TLR-7 EC50
Sequence of TLR7 (Q9NYK1 27-1049): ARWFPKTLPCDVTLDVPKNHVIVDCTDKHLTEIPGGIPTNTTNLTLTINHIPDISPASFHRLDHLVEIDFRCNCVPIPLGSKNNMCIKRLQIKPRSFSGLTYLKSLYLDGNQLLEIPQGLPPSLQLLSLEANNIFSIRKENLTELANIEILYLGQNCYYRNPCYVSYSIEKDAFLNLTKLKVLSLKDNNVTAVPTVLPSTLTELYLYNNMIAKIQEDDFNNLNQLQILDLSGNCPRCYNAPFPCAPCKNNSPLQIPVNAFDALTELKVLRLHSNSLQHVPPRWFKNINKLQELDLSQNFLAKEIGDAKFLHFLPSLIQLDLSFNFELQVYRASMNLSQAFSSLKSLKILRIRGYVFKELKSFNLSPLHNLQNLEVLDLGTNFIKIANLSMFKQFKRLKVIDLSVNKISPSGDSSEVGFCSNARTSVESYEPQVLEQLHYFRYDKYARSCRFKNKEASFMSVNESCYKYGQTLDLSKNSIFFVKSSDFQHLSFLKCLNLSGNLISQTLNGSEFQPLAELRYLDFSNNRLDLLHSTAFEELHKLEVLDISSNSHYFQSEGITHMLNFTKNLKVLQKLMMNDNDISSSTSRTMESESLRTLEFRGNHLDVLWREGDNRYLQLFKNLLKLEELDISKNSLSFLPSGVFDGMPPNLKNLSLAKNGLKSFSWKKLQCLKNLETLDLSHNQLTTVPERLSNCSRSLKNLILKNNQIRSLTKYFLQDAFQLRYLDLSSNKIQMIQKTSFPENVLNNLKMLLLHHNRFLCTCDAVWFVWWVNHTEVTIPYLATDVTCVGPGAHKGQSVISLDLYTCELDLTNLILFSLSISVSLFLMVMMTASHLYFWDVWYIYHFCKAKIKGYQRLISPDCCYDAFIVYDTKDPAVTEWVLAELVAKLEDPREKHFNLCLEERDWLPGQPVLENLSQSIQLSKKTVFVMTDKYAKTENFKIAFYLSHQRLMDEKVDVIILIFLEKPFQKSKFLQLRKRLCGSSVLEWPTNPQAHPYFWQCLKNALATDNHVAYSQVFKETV
Method: Human peripheral blood mononuclear cells (PBMCs) consist of lymphocytes, monocytes and dendritic cells that express TLR7, TLR8 and TLR9. These cells respond to TLR7, TLR8 and TLR9 ligand stimulation and produce cytokines and chemokines in vitro and in vivo. Human PBMCs are therefore suitable to be used in a cell-based assay to assess the in vitro potency of a TLR 7, 8, and/or 9 antagonist.
After counting, the cell density was adjusted to 2 million cells/ml and incubated for 1 hour at 37° C., 5% CO2 for recovery. Following the recovery, the cells were plated by adding 50 μl per well (100,000 cells) to 384-well cell culture plates (Greiner) containing 250 nl of test antagonists in 100% DMSO per well, in a 10 points dose response in quadruplicates. PBMCs were incubated in the presence of test antagonists for one hour at 37° C., 5% CO2 before being stimulated with a TLR7 or TLR9agonist. […] PBMCs were incubated in the presence of the test antagonist and the TLR7 (or TLR9) agonist for an additional 6 hours at 37° C., 5% CO2. At the end of the incubation, the cell culture plates were centrifuged at 500 g for 5 min, and the cell culture supernatant was collected. The level of cytokines (IL-6 and IFNα) in the supernatant was measured by electrochemiluminescence immunoassays (Mesoscale Discovery) following manufacturer's recommended protocols.

Sequence of TLR8 (Q9NR97 27-1041): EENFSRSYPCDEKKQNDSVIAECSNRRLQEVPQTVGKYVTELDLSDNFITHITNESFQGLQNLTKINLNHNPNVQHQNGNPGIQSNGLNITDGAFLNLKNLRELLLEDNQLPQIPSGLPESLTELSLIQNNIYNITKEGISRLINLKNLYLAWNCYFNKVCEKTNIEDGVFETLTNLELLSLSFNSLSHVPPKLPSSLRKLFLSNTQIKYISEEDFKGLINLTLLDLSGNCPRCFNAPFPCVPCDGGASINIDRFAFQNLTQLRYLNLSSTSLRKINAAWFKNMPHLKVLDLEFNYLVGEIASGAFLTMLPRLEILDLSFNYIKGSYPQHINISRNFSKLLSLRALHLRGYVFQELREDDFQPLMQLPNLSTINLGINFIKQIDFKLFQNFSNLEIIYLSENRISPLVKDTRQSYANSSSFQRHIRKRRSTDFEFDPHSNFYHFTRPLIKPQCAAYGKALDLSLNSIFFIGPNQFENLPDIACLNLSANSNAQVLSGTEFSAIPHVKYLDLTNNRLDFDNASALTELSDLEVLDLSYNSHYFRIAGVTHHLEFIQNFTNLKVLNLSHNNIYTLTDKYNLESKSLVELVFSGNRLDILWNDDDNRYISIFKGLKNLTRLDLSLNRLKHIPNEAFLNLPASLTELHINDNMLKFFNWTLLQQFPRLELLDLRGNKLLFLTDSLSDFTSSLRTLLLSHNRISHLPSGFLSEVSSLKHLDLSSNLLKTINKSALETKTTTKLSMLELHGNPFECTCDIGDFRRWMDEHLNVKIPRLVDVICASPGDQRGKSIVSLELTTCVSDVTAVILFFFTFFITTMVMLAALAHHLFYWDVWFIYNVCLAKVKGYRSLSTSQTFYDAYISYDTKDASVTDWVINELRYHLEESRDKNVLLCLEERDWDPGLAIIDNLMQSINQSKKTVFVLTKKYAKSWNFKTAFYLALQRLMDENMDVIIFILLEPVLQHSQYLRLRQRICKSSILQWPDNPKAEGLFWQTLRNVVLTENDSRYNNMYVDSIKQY

SMILES	EC50 [1]	EC50 [2]
Cc1c(C23CCN(CC(N)=O)CC2C3)sc2[nH]c(-c3cc(C)c4ncnn4c3)c(C(C)C)c12 (stereo not shown) [Example 199]	14.8 nM	0.47 nM
Cc1c(C(=O)N(C)C2CCN(CCO)CC2)sc2[nH]c(-c3cc(C)c4ncnn4c3)c(C(C)C)c12 [Example 7, N-(1-(2-hydroxyethyl)piperidin-4-yl)-4-isopropyl-N,3-dimethyl-5-(8-methyl-[1,2,4]triazolo[1,5-a]pyridin-6-yl)-6H-thieno[2,3-b]pyrrole-2-carboxamide]	3.71 nM	0.14 nM
Cc1c(-c2[nH]c3sc(C4C[C@@H]5C[C@H]4CC5N4CCS(=N)(=O)CC4)c(C)c3c2C(C)C)cn2ncnc2c1C (stereo partly shown) [Example 255]	21.4 nM	1.22 nM
Cc1c(C23CCN(CC(N)=O)CC2C3(F)F)sc2[nH]c(-c3cc(C)c4ncnn4c3)c(C(C)C)c12 (stereo not shown) [Example 205]	230 nM	0.6 nM
Cc1c(-c2[nH]c3sc([C@@H]4C[C@@H]5C[C@H]4CN5C(=O)[C@H]4C[C@H](F)CN4)c(C)c3c2C(C)C)cn2ncnc2c1C [Example 148]	15.9 nM	0.51 nM
Cc1cc(-c2[nH]c3sc(C4CCN(C(=O)[C@H]5COCCN5)CC4)c(CO)c3c2C(C)C)cn2ncnc12 [Example 260, (R)-(4-(3-(hydroxymethyl)-4-isopropyl-5-(8-methyl-[1,2,4]triazolo[1,5-a]pyridin-6-yl)-6H-thieno[2,3-b]pyrrol-2-yl)piperidin-1-yl)(morpholin-3-yl)methanone]	27.3 nM	0.31 nM
Cc1c(-c2[nH]c3sc(C4CCC(N5CC6(CCO6)C5)CC4)c(C)c3c2C(C)C)cn2ncnc2c1C (stereo not shown) [Example 300]	1.85 nM	0.22 nM
Cc1c(-c2[nH]c3sc(-c4ccc(C5CNCCO5)cc4)c(C)c3c2C(C)C)cn2ncnc2c1C (stereo not shown) [Example 115]	9.38 nM	0.24 nM
Cc1c(-c2[nH]c3sc(C45CCN(CC(N)=O)CC4C5)c(C)c3c2C(C)C)cn2ncnc2c1C (stereo not shown) [Example 93]	18.4 nM	1.36 nM

Continued, values first:

EC50 [1]	EC50 [2]	SMILES
28.4 nM	2.97 nM	Cc1c(C2CC3COCC(C2)N3)sc2[nH]c(-c3cc(C)c4ncnn4c3)c(C(C)C)c12 (stereo not shown) [Example 59]
30.9 nM	5.08 nM	Cc1c(C2CC23CCN(CC(N)=O)CC3)sc2[nH]c(-c3cc(C)c4ncnn4c3)c(C(C)C)c12 (stereo not shown) [Example 211]
0.21 nM	0.94 nM	Cc1c(C2CC3(C2)CN(CC(N)=O)C3)sc2[nH]c(-c3cc(C)c4ncnn4c3)c(C(C)C)c12 [Example 29]
3.45 nM	0.91 nM	Cc1c(C2CC3(CCCN3CC(N)=O)C2)sc2[nH]c(-c3cc(C)c4ncnn4c3)c(C(C)C)c12 (stereo not shown) [Example 140]
17.1 nM	0.64 nM	Cc1c(C2CCN(CC(N)=O)CC2)sc2[nH]c(-c3cc(C)c4ncnn4c3)c(C(C)C)c12 [Example 9, 2-(4-(4-isopropyl-3-methyl-5-(8-methyl-[1,2,4]triazolo[1,5-a]pyridin-6-yl)-6H-thieno[2,3-b]pyrrol-2-yl)piperidin-1-yl)acetamide]
10.7 nM	0.27 nM	Cc1c(C2CCC3(CCNCC3)C2)sc2[nH]c(-c3cc(C)c4ncnn4c3)c(C(C)C)c12 (stereo not shown) [Example 129]
9.8 nM	< 0.05 nM	Cc1c(C2CCN(S(=O)(=O)N3CCNCC3)CC2)sc2[nH]c(-c3cc(C)c4ncnn4c3)c(C(C)C)c12 [Example 156]
32.2 nM	0.19 nM	CCc1c(C2CCN(C(=O)[C@@H]3COCCN3)CC2)sc2[nH]c(-c3cc(C)c4ncnn4c3)c(C(C)C)c12 [Example 207]
8.98 nM	0.29 nM	Cc1c(C2CCC3(CC2)CNC3)sc2[nH]c(-c3cc(C)c4ncnn4c3)c(C(C)C)c12 [Example 24]
13 nM	0.1 nM	Cc1c(C2CCN(C(=O)[C@H]3COCCN3)CC2)sc2[nH]c(-c3cc(C)c4ncnn4c3)c(C(C)C)c12 [Example 35]
13.8 nM	5.06 nM	Cc1c(C23CNCC2C3(F)F)sc2[nH]c(-c3cc(C)c4ncnn4c3)c(C(C)C)c12 (stereo not shown) [Example 198]
